Data reported in ChEMBL document CHEMBL6087434, “An Activatable Heavy-Atom-Free Upconversion Photosensitizer for Targeted Imaging and Treatment of Tumors” (J Med Chem, 2024).
Activity calls are given as the source filed them. The rule behind the calls is not given here.

Legend:
[1] = Drug uptake in mouse model xenografted with human A549 cells at 300 uM, iv measured after 90 mins by fluorescence based imaging analysis; assay type: ADME, organism-based; settings: in vivo, 1.5 h
A549 [2] = assay: Antitumor activity against human A549 cells xenografted in mouse model assessed as decrease in tumor re-occurence at 300 uM, iv administered every other day under laser light irradiation measured after 14 days during observation period; assay type: functional, organism-based; settings: time 14.0 day
A549 [3] = assay: Induction of apoptosis in human A549 cells under 808 nm light irradiation by Annexin V-FITC/PI staining based flow cytometry; assay type: functional, cell-based
4T1 [4] = assay: Cytotoxicity against mouse 4T1 cells assessed as survival rate under absence of light upto 10 uM measured after 12 hrs by MTT assay relative to control; assay type: functional; settings: up to 10 µM
4T1 [5] = assay: Cytotoxicity against mouse 4T1 cells assessed as survival rate under laser light irradiation at 2.5 uM measured after 12 hrs by MTT assay relative to control; assay type: functional; settings: 4T1, light or radiation study, read-out: Survival
A549 [6] = assay: Antitumor activity against human A549 cells xenografted in mouse model assessed as tumor disappearance at 300 uM, iv administered every other day under laser light irradiation for 14 days relative to control; assay type: functional; settings: time 14 day
A549 [7] = assay: Cytotoxicity against human A549 cells assessed as survival rate under laser light irradiation measured after 12 hrs by MTT assay; assay type: functional, cell-based; settings: dose <= 10.0 µM
HeLa [8] = assay: Cytotoxicity against human HeLa cells assessed as survival rate under laser light irradiation measured after 12 hrs by MTT assay; assay type: functional, cell-based; settings: dose <= 10.0 µM
A549 [9] = assay: Cytotoxicity against human A549 cells assessed as survival rate under laser light irradiation at 2.5 uM measured after 12 hrs by MTT assay relative to control; assay type: functional; settings: A549, light or radiation study, read-out: Survival
A549 [10] = assay: Antitumor activity against human A549 cells xenografted in mouse model assessed as cellular structural damage at 300 uM, iv administered every other day under laser light irradiation measured after 14 days by H and E staining based analysis; assay type: functional, organism-based; settings: time 14.0 day
HeLa [11] = assay: Cytotoxicity against human HeLa cells assessed as survival rate under laser light irradiation at 2.5 uM measured after 12 hrs by MTT assay relative to control; assay type: functional; settings: light or radiation study, read-out: Survival
[12] = Toxicity in mouse model xenografted with human A549 cells assessed as body weight change at 300 uM, iv measured for 14 days; assay type: organism-based; settings: 336 h, time 14 day
A549 [13] = assay: Cytotoxicity against human A549 cells under 808 nm light irradiation by DCF-DA probe based analysis; assay type: functional, cell-based
[14] = Toxicity in mouse model xenografted with human A549 cells assessed as damage in heart at 300 uM, iv measured after 14 days by H and E staining based analysis; assay type: organism-based; settings: 336 h, time 14 day
[15] = Toxicity in mouse model xenografted with human A549 cells assessed as damage in kidney at 300 uM, iv measured after 14 days by H and E staining based analysis; assay type: organism-based; settings: 336 h, time 14 day
[16] = Toxicity in mouse model xenografted with human A549 cells assessed as damage in liver at 300 uM, iv measured after 14 days by H and E staining based analysis; assay type: organism-based; settings: 336 h, time 14 day
[17] = Drug localization in human HeLa cells assessed as co-localization co-efficient at 10 uM by LysoTracker Green DND-2 dye based analysis; assay type: ADME, cell-based
A549 [18] = assay: Cytotoxicity against human A549 cells assessed as survival rate under absence of light upto 10 uM measured after 12 hrs by MTT assay relative to control; assay type: functional; settings: up to 10 µM
[19] = Toxicity in mouse model xenografted with human A549 cells assessed as damage in lung at 300 uM, iv measured after 14 days by H and E staining based analysis; assay type: organism-based; settings: 336 h, time 14 day
[20] = Drug metabolism in human A549 cells assessed as NTR-mediated metabolism under 5 percent oxygen at 10 uM incubated for 30 mins by DAPI staining based CLSM analysis; assay type: ADME, cell-based; settings: a549, 0.5 h
4T1 [21] = assay: Cytotoxicity against mouse 4T1 cells assessed as survival rate under laser light irradiation measured after 12 hrs by MTT assay; assay type: functional, cell-based; settings: dose <= 10.0 µM
[22] = Drug metabolism in human A549 cells assessed as NTR-mediated metabolism under 10 to 20 percent oxygen at 10 uM incubated for 30 mins by confocal fluorescence imaging based analysis; assay type: ADME, cell-based; settings: a549, 0.5 h
[23] = Drug localization in human A549 cells assessed as co-localization co-efficient at 10 uM by LysoTracker Green DND-2 dye based analysis; assay type: ADME, cell-based; settings: a549, 10 µM
A549 [24] = assay: Inhibition of cell migration in human A549 cells under 808 nm light irradiation measured for 18 hrs by wound healing assay; assay type: functional, cell-based
A549 [25] = assay: Antitumor activity against human A549 cells xenografted in mouse model assessed as presence of necrotic cells at 300 uM, iv administered every other day under laser light irradiation measured after 14 days by H and E staining based analysis; assay type: functional, organism-based; settings: time 14.0 day
A549 [26] = assay: Induction of singlet oxygen production in human A549 cells under 808 nm light irradiation by DCF-DA probe based analysis; assay type: functional, cell-based
A549 [27] = assay: Cytotoxicity against human A549 cells assessed as survival rate under laser light irradiation at 10 uM measured after 12 hrs by MTT assay relative to control; assay type: functional; settings: A549, light or radiation study, read-out: Survival
4T1 [28] = assay: Cytotoxicity against mouse 4T1 cells assessed as survival rate under laser light irradiation at 10 uM measured after 12 hrs by MTT assay relative to control; assay type: functional; settings: 4T1, light or radiation study, read-out: Survival
[29] = Drug uptake in human A549 cells xenografted in mouse model at 300 uM, iv measured after 2 hrs by fluorescence based imaging analysis; assay type: ADME, organism-based; settings: in vivo
[30] = Toxicity in mouse model xenografted with human A549 cells assessed as damage in spleen at 300 uM, iv measured after 14 days by H and E staining based analysis; assay type: organism-based; settings: 336 h, time 14 day
A549 [31] = assay: Antitumor activity against human A549 cells xenografted in mouse model assessed as tumor growth inhibition at 300 uM, iv administered every other day under laser light irradiation for 14 days; assay type: functional, organism-based; settings: time 14.0 day
HeLa [32] = assay: Cytotoxicity against human HeLa cells assessed as survival rate under laser light irradiation at 10 uM measured after 12 hrs by MTT assay relative to control; assay type: functional; settings: light or radiation study, read-out: Survival
[33] = Drug metabolism assessed as NTR(unknown origin)-mediated metabolism under 745 nm light irradiation by fluorescence based analysis; assay type: ADME; settings: human
HeLa [34] = assay: Cytotoxicity against human HeLa cells assessed as survival rate under absence of light upto 10 uM measured after 12 hrs by MTT assay relative to control; assay type: functional; settings: up to 10 µM
[35] = Induction of singlet oxygen quantum yield under 808 nm light irradiation by DPBF based assay; assay type: functional
A549 [36] = assay: Induction of singlet oxygen production in human A549 cells by DCF-DA probe based analysis; assay type: functional, cell-based
[37] = Induction of singlet oxygen quantum yield assessed as decrease in absorption signal under 415 nm light irradiation measured after 15 mins by DPBF based assay; assay type: functional; design: scale not given: the % may be the effect or the level left
[38] = Induction of singlet oxygen quantum yield under 808 nm light irradiation in presence of NTR by DPBF based assay; assay type: functional
A549 [39] = assay: Cytotoxicity against human A549 cells under near-infra red light irradiation; assay type: functional, cell-based
A549 [40] = assay: Cytotoxicity against NAC-treated human A549 cells by DCF-DA probe based analysis; assay type: functional, cell-based
[41] = Photostability of compound upto 2 W/cm2 measured for 8 mins; assay type: physicochemical
[42] = Drug metabolism in human L02 cells assessed as NTR-mediated metabolism at 10 uM incubated for 30 mins by DAPI staining based CLSM analysis; assay type: ADME, cell-based; settings: l02, 0.5 h
[43] = Drug metabolism in human A549 cells assessed as NTR-mediated metabolism at 10 uM incubated for 30 mins by DAPI staining based CLSM analysis; assay type: ADME, cell-based; settings: a549, 0.5 h
[44] = Drug metabolism in human HeLa cells assessed as NTR-mediated metabolism at 10 uM incubated for 30 mins by DAPI staining based CLSM analysis; assay type: ADME, cell-based; settings: 0.5 h

For `CC[N+]1=C(/C=C/C2=C3Oc4cc(N(C)C(=O)OCc5ccc([N+](=O)[O-])cc5)ccc4C=C3CCC2)C(C)(C)c2c1ccc1ccccc21.I`, the Drug uptake [1] was “Active”, the Activity (A549 [2]) was “Active” and the Activity (A549 [3]) was “Active”. The Survival (4T1 [4]) was over 85%, the viability at 2.5 µM (4T1 [5]) was under 80% and the Activity (A549 [6]) was about 100%. For the same molecule, the Activity (A549 [7]) was “Dose-dependent-effect”, the Activity (HeLa [8]) was “Dose-dependent-effect” and the viability at 2.5 µM (A549 [9]) was under 80%. For the same molecule, the Activity (A549 [10]) was “Active”, the viability at 2.5 µM (HeLa [11]) was under 80% and the Activity [12] was “Non-toxic”. For the same molecule, the Activity (A549 [13]) was “Active”, the Activity [14] was “Non-toxic” and the Activity [15] was “Non-toxic”. For the same molecule, the Activity [16] was “Non-toxic”, the Activity [17] was 0.88 and the Survival (A549 [18]) was over 85%. For the same molecule, the Activity [19] was “Non-toxic”, the Drug metabolism [20] was “metabolite_detected” and the Activity (4T1 [21]) was “Dose-dependent-effect”. For the same molecule, the Drug metabolism [22] was “metabolite_notdetected”, the Activity [23] was 0.9 and the inhibition (A549 [24]) was “Active”. For the same molecule, the Activity (A549 [25]) was “Active”, the Activity (A549 [26]) was “Active” and the viability at 10 µM (A549 [27]) was under 40%. The viability at 10 µM (4T1 [28]) was under 40%, the Drug uptake [29] was “Active” and the Activity [30] was “Non-toxic”. The inhibition (A549 [31]) was “Active”, the viability at 10 µM (HeLa [32]) was under 40% and the Drug metabolism [33] was “metabolite_detected”. For the same molecule, the Survival (HeLa [34]) was over 85%.

Work on `CC[N+]1=C(/C=C/C2=C3Oc4cc(O)ccc4C=C3CCC2)C(C)(C)c2ccccc21` yielded an Activity [35] of 0.002.

In the case of `CC[N+]1=C(/C=C/C2=C3Oc4cc(NC)ccc4C=C3CCC2)C(C)(C)c2c1ccc1ccccc21.[I-]`, the Activity (A549 [3]) is reported as “Active”, the Activity [35] is reported as 0.059 and the Activity (A549 [36]) is reported as “Active”. The Activity [37] was 74.7%, the Activity [38] was “inactive” and the Activity (A549 [39]) was “Active”. For the same molecule, the Activity (A549 [40]) was “inactive” and the Stability [41] was “Stable”.

In the case of `CC[N+]1=C(/C=C/C2=C3Oc4cc(N)ccc4C=C3CCC2)C(C)(C)c2ccccc21`, the Activity [35] is reported as 0.005.

`CC[N+]1=C(/C=C/C2=C3Oc4cc(O)ccc4C=C3CCC2)C(C)(C)c2c1ccc1ccccc21` showed an Activity [35] of 0.002.

For COBALTOUS CHLORIDE, the Drug metabolism [42] was “metabolite_detected”.

For `CC[N+]1=C(/C=C/C2=C3Oc4cc(N)ccc4C=C3CCC2)C(C)(C)c2c1ccc1ccccc21`, the Activity [35] was 0.008.

With `O=c1oc2ccccc2c(O)c1Cc1c(O)c2ccccc2oc1=O` [DICUMAROL] the Activity (A549 [13]) was “inactive”, the Drug metabolism [43] was “metabolite_notdetected” and the Activity (A549 [26]) was “inactive”. For the same molecule, the Drug metabolism [44] was “metabolite_notdetected”.

Molecule `CC[N+]1=C(/C=C/C2=C3Oc4cc(NC)ccc4C=C3CCC2)C(C)(C)c2ccccc21` has an Activity [35] of 0.005.
